Laboratory results reported in patent US20040043959A1, “Combination therapies for treating methylthioadenosine phosphorylase deficient cells” (priority 2002, published 2004).
Where two headings read alike, the source gives them in different places.

Legend:
[1] = biological target: T1, human membrane folate-binding protein (mFBP) (Homo sapiens, UniProt P15328); experiment: competitive binding assay against 3H-folic acid with mFBP prepared from KB cells
T1 construct: mFBP prepared from cultured KB cells (human nasopharyngeal carcinoma cells); endogenous in cells
From the text: The dissociation constant (Kd) of the preferred inhibitors of the present invention for human membrane folate-binding protein (mFBP) can be determined in a competitive binding assay using mFBP prepared from cultured KB cells (human nasopharyngeal carcinoma cells) as disclosed in U.S. Pat. No. 5,646,141, the disclosures of which is hereby incorporated by reference in its entirety.
Human membrane folate binding protein can be obtained from KB cells by methods well known in the art. KB cells are washed, sonicated for cell lysis and centrifuged to form pelleted cells. The pellet can then be stripped of endogenous bound folate by resuspension in acidic buffer (KH2PO4—KOH and 2-mercaptoethanol) and centrifuged again. The pellet is then resuspended and the protein content quantitated using the Bradford method with bovine serum albumin (BSA) as standard.
Disassociation constants are determined by allowing, the test inhibitor to compete against ^3H-folic acid for binding to mFBP. Reaction mixtures are designed to generally contain mFBP, ^3H-folic acid, and various concentrations of the subject test inhibitor in acidic buffer (KH2PO4—KOH and 2-mercaptoethanol). The competition reaction is typically conducted at 25°. Because of the slow nature of release of bound ^3H-folic acid, the test inhibitor may be prebound prior to addition of bound ^3H-folic acid, after which the reaction should be allowed to equilibriate. The full reaction mixtures then should be drawn through nitrocellulose filters to isolate the cell membranes with bound ^3H-folic acid. The trapped mFBP are then washed and measured by scintillation counting. The data can then be nonlinearly fitted as described above in determining Ki. The mFBP Kd for ^3H-folic acid, used for calculating the competitor Kd, can be obtained by directly titrating mFBP with ^3H-folate. The mFBP Kd can then be used to calculate the competitor Kd by nonlinear fitting of the data to an equation for tight-binding Kc. Table 1 below provides the Kd values of several GARFT inhibitors using the assay described above.

[2] = system: MTAP-competent NCI-H460 cells; experiment: MTT growth inhibition by Compound 1 or 3 with and without MTA; format: cell-based, human; details: FIG. 7
Experimental: (§1) Cells were plated in columns 2-12 of a 96-well microtiter plate, with column 2 designated as the vehicle control. The same volume of medium was added to column 1. Column 1 was designated as the media control. After a 4-hour incubation, the cells were treated with Compound 7, with or without a non-growth inhibitory concentration of MTA, in quadruplicate wells. […] MTT (4,5-dimethylthiazol-2-yl)-2,5-diphenyl tetrazolium bromide; Sigma, St. Louis, Mo.) was added to a final concentration of 0.25-1 mg/ml in each well, and the plates were incubated for 4 hours. The liquid was removed from each well. DMSO was added to each well, then the plates were vortexed slowly in the dark for 7-20 minutes. The formazin product was quantified spectrophotometrically at […] on a Molecular Devices Vmax™ kinetic microplate reader.

[3] = system: MTAP-competent SK-MES-1 non-small cell lung cancer cells; experiment: MTT growth inhibition by Compound 7 with and without MTA; format: cell-based, human
Experimental: All cell lines were purchased from the American Type Culture Collection. All cultures were maintained at 37° C., in 5% air-CO2 atmosphere in a humidified incubator.
as §1

[4] = system: human pancreatic BxPC-3 tumor; experiment: antitumor activity in MTAP-deficient xenograft model; format: in vivo, mice
From the text: (§2) To evaluate the in vivo effect of combination therapy on known human MTAP-deficient tumors, an MTAP-deficient cell line was introduced to mice to produce xenograft MTAP-deficient tumors. 108 BALB/c/nu/nu female mice bearing subcutaneous tumor fragments produced from the MTAP-deficent BxPC-3 cell line were housed 3 per cage with free access to food and water. Mice were fed a folate-deficient chow (#Td84052, Harlan Teklad, Madison, Wis.) beginning 14 days prior to initiation of drug treatment and continuing throughout the study. After randomization by tumor volume into 8 treatment groups and assigning the remaining 12 mice to group 7, beginning on the twenty-first day after tumor implant mice were dosed with Compound 7 daily for 4 days, and with MTA or vehicle twice-a-day for 8 days, in the amounts indicated in Table 7 below. The vehicle for both compounds was 0.75% sodium bicarbonate in water (7.5% NaHCO3 solution (Cellgro #25-035-4, Mediatech, Herndon, Va.) diluted 1:10 in sterile water for injection (Butler, Columbus, Ohio)) under pH adjusted to 7.0-7.4. Solutions were sterilized by filtration through 0.22 micron polycarboniate filters (Cameo 25GAS, Micron Separations Inc., Westboro, Mass.). Tumor volumes and animal weight loss, which is an indicator of toxicity, were recorded daily for 14 days at the same time of day, then on a Monday, Wednesday, Friday schedule for the remainder of the study.

[5] = animal weight loss (toxicity) in BxPC-3 xenograft study; format: in vivo; details: 40 mg/kg Compound 7 plus 50 mg/kg MTA versus 2.5 mg/kg Compound 7 alone, folate-deficient diet
From the text: as §2, with “Solutions were sterilized by filtration through 0.22 micron polycarboniate filters (Cameo 25GAS, Micron Separations Inc., Westboro, Mass.).” left out

[6] = mouse, in vivo
Experimental: A series of experiments were undertaken in order to evaluate the in vivo effect of schedule of administration of MTA on reduction of […] induced by […]. BALB/c/nu/nu female mice were housed 3 per cage with free access to food and water. Mice were fed a folate-deficient chow (#Td84052, Harlan-Teklad, Madison, Wis.) for at least 14 days prior to initiation of drug treatment and continuing throughout the study. Animal weight loss, which is a measure of toxicity, was recorded at least daily for 18 days at the same time of day. Table 11 presents a summary of data from multiple experiments, i.e., at least two experiments for each schedule. […] To produce this effect, MTA must be administered at the beginning of treatment with Compound 7 and continuing until after treatment with Compound 7. Further, since the activity of Compound 7 continues for at least a few days after the last dose was administered, to produce an effect MTA must be administered during this period of activity, i.e. for at least 2 days after the last dose of the cytotoxic was administered.

[7] = biological target: T1, human membrane folate-binding protein (mFBP); details: relative to lometrexol; cited from earlier work
GARFT = biological target: T2, GARFT (Homo sapiens, UniProt P22102); details: read-out: Ki (GARFT inhibitor); cited from earlier work
T2 construct: The GART domain (residues 808-1010) of the trifunctional human GARS-AIRS-GART enzyme was purified; made in house

AICARFT = biological target: T3, AICARFT (Homo sapiens, UniProt P31939); details: cited from earlier work
T3 construct: the catalytic domain of the human enzyme and its substrate (i.e., GARFT and GAR, or AICARFT and AICAR)

[8] = system: BxPC-3 cells transfected with the MTAP gene; experiment: colony formation cytotoxicity, 6 h drug exposure; format: cell-based, human; details: 1.5 μM Compound 7 with 50 μM anti-toxicity agent, FIG. 5a
Experimental: (§3) Cytoxicity data was collected using BxPC-3, PANC-1 and HT-1080 cells which were cultured in Iscove's medium supplemented with 10% dialyzed, horse serum, 5% nonessential amino acids and 5% sodium pyruvate.
(§4) Mid-log-phase cells were trypsinized and placed in 60 mm tissue culture dishes at 200 or 250 cells per dish. Cells from each cell line were left to attach for 4 hours and then were treated with Compound 7, with or without MTA or dcSAMe, in 5-fold serial dilutions for 6 or 24 hours. For data shown in FIGS. 5a and 5b, cells were exposed to drug(s) for 6 hours only. For data shown in FIG. 6, cells were exposed to Compound 7 for 24 hours and to MTA continuously for the duration of colony growth (i.e. 24 hours and thereafter). Cells were next washed with PBS, and then fixed and stained with 1% w/v crystal violet in 25% methanol (Sigma, St. Louis, Mo.). After washing the dishes 2-3 times. with deionized water, the colonies were counted. Triplicate dishes were used for each drug concentration.

[9] = system: MTAP-competent NCI-H460 cells; experiment: colony formation cytotoxicity with varying duration of MTA exposure; format: cell-based, human; details: MTA for at least 48 hours, at least 1 day after Compound 7 exposure, FIG. 8
Experimental: as §4
Cytoxicity data for combination therapy of Compound 7 with MTA was collected using MTAP-competent […] cells. NCI-H460 cells were cultured, incubated and stained as described in Example 3(B) above, but with an incubation time of up to eight days.

MTAP-deficient BxPC-3 = experiment: colony formation cytotoxicity, 6 h drug exposure; format: cell-based, human; details: Compound 7 with 50 μM anti-toxicity agent, FIG. 5b
Experimental: as §3, §4

T1 sequence (P15328 25-234): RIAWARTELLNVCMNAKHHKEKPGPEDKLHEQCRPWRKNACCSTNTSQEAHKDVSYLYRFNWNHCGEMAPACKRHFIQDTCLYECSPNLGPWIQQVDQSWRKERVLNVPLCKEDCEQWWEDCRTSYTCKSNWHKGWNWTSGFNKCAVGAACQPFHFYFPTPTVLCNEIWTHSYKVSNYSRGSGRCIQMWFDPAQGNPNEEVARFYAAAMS
T2 sequence (P22102 808-1010): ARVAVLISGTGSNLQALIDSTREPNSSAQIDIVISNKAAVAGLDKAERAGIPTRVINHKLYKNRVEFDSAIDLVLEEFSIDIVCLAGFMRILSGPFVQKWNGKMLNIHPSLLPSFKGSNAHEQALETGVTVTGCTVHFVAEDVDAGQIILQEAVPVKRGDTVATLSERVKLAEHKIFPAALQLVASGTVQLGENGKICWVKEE
T3 sequence (P31939 199-592 limits assumed): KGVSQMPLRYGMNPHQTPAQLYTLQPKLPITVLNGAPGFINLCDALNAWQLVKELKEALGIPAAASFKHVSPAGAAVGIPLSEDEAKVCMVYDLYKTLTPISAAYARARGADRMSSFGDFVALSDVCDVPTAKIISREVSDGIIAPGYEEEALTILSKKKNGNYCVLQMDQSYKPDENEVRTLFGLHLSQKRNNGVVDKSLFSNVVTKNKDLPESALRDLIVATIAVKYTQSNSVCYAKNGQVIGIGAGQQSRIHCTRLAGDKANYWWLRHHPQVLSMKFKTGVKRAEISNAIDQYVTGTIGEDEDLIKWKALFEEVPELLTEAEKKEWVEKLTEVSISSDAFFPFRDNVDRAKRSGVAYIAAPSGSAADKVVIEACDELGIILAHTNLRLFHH

In the case of `Cc1cc(C(=O)N[C@@H](CCC(=O)O)C(=O)O)sc1CC[C@H]1CNc2nc(N)[nH]c(=O)c2S1` (single isomer, unassigned) [Compound 3], the Kd [1] is reported as 0.0042 nM and the “factor by which MTA reduced the growth inhibitory activity” value [2] is reported as “greater than 5”.

For `Cc1cc(C(=O)N[C@@H](CCC(=O)O)C(=O)O)sc1CC[C@@H]1CNc2nc(N)[nH]c(=O)c2C1` (single isomer, unassigned) [Compound 7], the Kd [1] was 290 nM, the “cell growth inhibition as a single agent” value ([3]; SK-MES-1, 168 h, FIG. 3) was “fully inhibited cell growth” and the “cell number at the highest concentration of Compound 7 tested” value ([3]; with 10 μM MTA, up to approximately 60 times the IC50 of Compound 7) was “about 75 % of control”. The “Time to 1000 mm^3 (days) Mean” value ([4]; 2.5 mg/kg Compound 7 qd x4) was 32.3 days, the “Time to 1000 mm^3 (days) Median” value ([4]; 2.5 mg/kg Compound 7 qd x4) was 32.4 days and the “Time to 1000 mm^3 (days) Mean” value ([4]; 5 mg/kg Compound 7 qd x4) was 32.1 days. The “Time to 1000 mm^3 (days) Median” value ([4]; 5 mg/kg Compound 7 qd x4) was 32.4 days, the “Time to 1000 mm^3 (days) Mean” value ([4]; 10 mg/kg Compound 7 qd x4) was 34.0 days and the “Time to 1000 mm^3 (days) Median” value ([4]; 10 mg/kg Compound 7 qd x4) was 33.4 days. The “Time to 1000 mm^3 (days) Median” value ([4]; 20 mg/kg Compound 7 qd x4) was 36.4 days, the “increase of therapeutic window” value ([4]; MTA twice a day 8 days, Compound 7 daily 4 days, nu/nu tumor-bearing mice, folate-deficient diet) was 16 fold and the “reduction in toxicity (weight loss)” value [5] was 16 fold. The “Increase in Compound 7 maximum tolerated dose (-fold dose)” value ([6]; female, BALB/c/nu/nu) was 4 -fold dose, the “Increase in Compound 7 maximum tolerated dose (-fold dose)” value [6] was “None” and the “binds less tightly than lometrexol to mFBP” value [7] was “about 1400 fold”. For the same molecule, the Ki (GARFT) was 0.5 nM.

In the case of `Nc1nc(N)c(SCCc2ccc(C(=O)N[C@@H](CCC(=O)O)C(=O)O)s2)c(=O)[nH]1` [Compound 1, N-[5-(2[(2,6-diamino-4(3H)-oxopyrimidin5yl)thio]ethyl)thieno-2-yl]-L-glutamic acid], the “factor by which MTA reduced the growth inhibitory activity” value [2] is given as 3 and the “Ki (specific inhibitor of AICARFT)” value (AICARFT) is given as “micromolar”.

`Cc1cc(C(=O)N[C@@H](CCC(=O)O)C(=O)O)sc1CCCSc1c(N)nc(N)[nH]c1=O` [Compound 2] showed a Kd [1] of 136 nM.

For `Cc1cc(C(=O)N[C@@H](CCC(=O)O)C(=O)O)sc1CC[C@@H]1CNc2nc(N)[nH]c(=O)c2S1` [Compound 4, 4-[2-(2-Amino-4-oxo-4,6,7,8-tetraydro-3H-pyrimido[5,4-b][1,4]thiazin-6-yl)-(R)-ethyl]-3-methyl-2-thienoyl-5-amino-L-glutamic acid], the Kd [1] was 1 nM.

In the case of `Cc1cc(C(=O)N[C@@H](CCC(=O)O)C(=O)O)sc1CC[C@H]1CNc2nc(N)[nH]c(=O)c2S1` [Compound 5, 4-[2-(2-Amino-4-oxo-4,6,7,8-tetrahydro-3H-pyrimido[5,4-b][1,4]thiazin-6-yl)-(S)-ethyl]-3-methyl-2-thienoyl-5-amino-L-glutamic acid], the Kd [1] is reported as 0.71 nM.

With `CSC[C@H]1O[C@@H](n2cnc3c(N)ncnc32)[C@H](O)[C@@H]1O` [MTA, methylthioadenosine] the cell survival [8] was 100%, the “protection from Compound 7-induced cytotoxicity” value [9] was “fully protected cells from Compound 7-induced cytotoxicity” and the “Time to 1000 mm^3 (days) Mean” value ([4]; 50 mg/kg MTA bid x8 alone) was 22.6 days. For the same molecule, the “Time to 1000 mm^3 (days) Median” value ([4]; 50 mg/kg MTA bid x8 alone) was 21.4 days.

In the case of `C[S+](CCCN)CC1OC(n2cnc3c(N)ncnc32)C(O)C1O` (centres unmarked) [dcSAMe, decarboxylated S-adenosylmethionine], the cell survival [8] is reported as 100% and the “effect on cell survival” value (MTAP-deficient BxPC-3) is reported as “increased cell survival by less than observed for the MTAP competent cells”.
